In US12065447B2, “Heterocyclic amide for inhibiting RIP1 kinase and uses thereof” (SHANGHAI INSTITUTE OF MATERIA MEDICA, CHINESE ACADEMY OF …, priority 2018, dated 2024):

Assays:
[1] = Study on oral pharmacokinetics in rats; assay type: in vivo; conditions: rat, plasma, male SD rats, 3 mg/kg by gavage, average; for AUC(0-inf): extrapolated to infinity, read-out: AUCINF_obs; for MRT inf: read-out: Average residence time MRTINF_obs; for half-life: read-out: Half life T1/2 (converted); for Cmax: read-out: Peak plasma concentration Cmax
Description: Study on Oral Pharmacokinetics in Rats • 1. […] The pharmacokinetic behaviors of the compounds of the present invention in rats were studied, and the pharmacokinetic properties of the compounds were evaluated. • 2. The test animals are healthy adult male SD rats, 3 in each group. • 3. […] Liquid chromatography tandem mass spectrometry (LC-MS/MS) was used to determine the plasma concentration of test compounds in rat after intragastrical administration of different compounds.

[2] = tested on: TNFα induced systemic inflammatory response syndrome (SIRS); assay: TNFα induced C57BL/6 mouse systemic inflammatory response syndrome (SIRS) model (hypothermic shock); assay type: in vivo; conditions: mTNFα 5 μg/mouse tail vein, drug by gavage 15 min before modeling
Description: TNFα Induced C57BL/6 Mouse Systemic Inflammatory Response Syndrome (SIRS) Model
Source, stirp and strain: C57BL/6 pure mouse, female, 18-20 g, purchased from Shanghai Lingchang Biotechnology Co., Ltd., license No. SCXK (Shanghai) 2013-0018. The animals were bred in the SPF animal room of Building No. 2 of the Shanghai institute of Materia Medica, and the experimental animal use license number is SYXK (Shanghai) 2013-0049. The animals were bred for at least one week before use at 22±1° C. with a humidity of 55±5% and 12 h light and dark cycle. Both feed and water are freely ingested by the animals after disinfection. All experiments were carried out in strict accordance with the relevant regulations on experimental animals.
2. Test Reagents and Materials: • 1) Recombinant Mouse mTNFα was purchased from Shanghai JIN′AN Biological Company. • 2) Experimental materials: 1.5 mL centrifuge tubes were purchased from Axygen Company, 15 mL and 50 mL centrifuge tubes were purchased from Corning Company; commonly used surgical instruments (ophthalmic scissors, large tweezers, small tweezers, tissue scissors) and 1 mL, 2 mL, and 10 mL disposable plastic dispensers were purchased from Sinopharm Chemical Reagent Co., Ltd.; pipettes of various specifications were purchased from Eppendorf Company; tips of various specifications were purchased from Axygen and Sartoruris Company. • 3) Experimental equipments: the syringe adopts omnican insulin syringes, a disposable syringe adopts sterile insulin syringe with a product number of 9161635, and an outer diameter and length of the needle tube of 0.30*8 mm; the mouse tail vein syringe is model YLS-Q9G purchased from Jinan Yyan Technology Development Co., Ltd.; Laboratory animal rectal temperature measuring instrument was model ALC-ET06 purchased from Shanghai Alcott Biotechnology Co., Ltd.
3. Reagents and Compound Preparation Methods: • 1) Recombinant Mouse mTNFα: mTNFα lyophilized powder was dissolved in PBS to prepare a stock solution of 200 μg/mL, and stored in a refrigerator at −20° C. after sub-packaging. The stock solution was put in a refrigerator at 4° C. overnight to reach dissolution equilibrium when in use. […] The drug concentration was determined comprehensively according to the results of in vitro experiments and the pharmacokinetic properties.
4. […] Therefore, the model with tail vein injection of TNFα was selected as the classic model for an animal level screen of RIP1 inhibitor. • 2) Experimental process: • a) The experimental animals were randomly grouped according to their body weight one day in advance, and there are 8 animals in each group. • b) On the day of the experiment, mTNFα and sterile PBS were diluted according to the above method, sucked into an insulin syringe at 125 μl/piece, that is, 5 μg/mice. • c) The drug was administered 15 min before modeling by gavage at 0.2 mL/mouse. • d) 15 min after administration, the modeling was started by injection of PBS or mTNFα into the tail vein, the injection was conducted according to the above dose. • e) After modeling, the rectal temperature was measured every 1 h and the survival rate was measured.
5. Testing Indicators: • 1) Animal body temperature: The rectal temperature was measured every 1 h after modeling. […]

| Compound | AUC(0-t) [1] [ng·h/mL] | AUC(0-inf) [1] [ng·h/mL] | MRT inf [1] [h] | half-life [1] [h] | Cmax [1] [ng/mL] | Survival rate [2] [%] |
| --- | --- | --- | --- | --- | --- | --- |
| CN1C(=O)[C@@H](NC(=O)c2n[nH]c(Cc3ccccc3)n2)COc2ccc(C#CC3CC3)cc21 [ZB-R-55] | 25700 | 26100 | 7.23 | 3.71 | 2900 | 100 |
| CN1C(=O)[C@@H](NC(=O)c2n[nH]c(Cc3ccccc3)n2)COc2ccc(C#CC3CCOCC3)cc21 [ZB-R-54] | 1240 | 1250 | 2 | 1.14 | 667 | 100 |
| CN1C(=O)[C@@H](NC(=O)c2n[nH]c(Cc3ccccc3)n2)COc2ccc(C#Cc3cccnc3)cc21 [ZB-R-51] | 4210 | 4290 | 2.8 | 1.79 | 1360 | – |
| CN1C(=O)[C@@H](NC(=O)c2n[nH]c(Cc3ccccc3)n2)COc2ccccc21 [GSK2982772, reference compound] | – | – | – | – | – | 100 |
| CN1C(=O)[C@@H](NC(=O)c2n[nH]c(Cc3ccccc3)n2)COc2ccc(C#Cc3cnn(C)c3)cc21 [ZB-R-53] | 4500 | 4650 | 2.41 | 1.54 | 1760 | 100 |
| Cc1c(C#Cc2cnn(C)c2)sc2c1SC[C@H](NC(=O)c1nnc(Cc3ccccc3)[nH]1)C(=O)N2C [ZB-R-39] | 1680 | 1700 | 4.07 | 3.46 | 525 | – |
| CN1C(=O)[C@@H](NC(=O)c2n[nH]c(Cc3ccccc3)n2)COc2ccc(C#Cc3ccccn3)cc21 [ZB-R-50] | 3110 | 3120 | 2.2 | 1.56 | 1450 | 100 |
| CN1C(=O)[C@@H](NC(=O)c2n[nH]c(Cc3ccccc3)n2)COc2ccc(C#Cc3ccncc3)cc21 [ZB-R-52] | 1560 | 1560 | 1.61 | 0.81 | 755 | – |
